Test system: SARS-CoV-2 SA variant B.1351
Assay: Virus yield reduction assay against SARS-CoV-2 SA variant B.1351
Type: cell-based
Details: MOI 0.1, 1 and 10, 50, 75, 100 μM, 24 h

Q: `O=C(O)c1ccc(F)c(F)c1Nc1ccc(I)cc1Cl` [ATR-002, 2-(2-chloro-4-iodophenylamino)-N-3,4-difluoro benzoic acid] was tested. Which “virus yield (RT-qPCR)” value (Calu-3) did it give?
A: The value was “reduction of virus yield”.

Q: What about the “virus yield (RT-qPCR)” value (Vero) of the same compound?
A: Its value is “reduction of virus yield”.

Reference: US20230241014A1, “MEK-INHIBITORS FOR THE TREATMENT OR PREVENTION OF CORONAVIRUS INFECTIONS AND/OR COVID-19 CYTOKINE STORM” (priority 2020, published 2023)
